Columns and labels:
[1] = system: Human immunodeficiency virus 1; experiment: Antiviral activity against drug-resistant HIV-1 K103 N mutant infected in human MT4 cells assessed as reduction in virus-induced cytopathic effect incubated for 5 days by MTT assay; assay type: functional, organism-based; conditions: Human immunodeficiency virus 1, K103 N mutant, MT4, 120 h
[2] = Fold resistance, ratio of EC50 for antiviral activity against drug-resistant HIV-1 Y188L mutant infected in human MT4 cells to EC50 for antiviral activity against […] HIV-1 infected in human MT4 cells; assay type: functional
[3] = system: Human immunodeficiency virus 1; experiment: Antiviral activity against drug-resistant HIV-1 Y188L mutant infected in human MT4 cells assessed as reduction in virus-induced cytopathic effect incubated for 5 days by MTT assay; assay type: functional, organism-based; conditions: Human immunodeficiency virus 1, Y188L mutant, MT4, 120 h
[4] = system: Human immunodeficiency virus 1; experiment: Antiviral activity against drug-resistant HIV-1 L100I mutant infected in human MT4 cells assessed as reduction in virus-induced cytopathic effect incubated for 5 days by MTT assay; assay type: functional, organism-based; conditions: Human immunodeficiency virus 1, L100I mutant, MT4, 120 h
[5] = biological target: Human immunodeficiency virus type 1 reverse transcriptase (Human immunodeficiency virus 1, UniProt Q72547); experiment: Inhibition of recombinant wild-type p66/p51 HIV-1 reverse transcriptase incubated for 40 mins by picogreen dye-based spectrofluorometric analysis
[6] = Selectivity index, ratio of CC50 for human MT4 cells to EC50 for antiviral activity against NNRTI resistant HIV-1 infected in human MT4 cells; assay type: toxicity, cell-based; conditions: read-out: Ratio CC50/EC50
[7] = Fold resistance, ratio of EC50 for antiviral activity against drug-resistant HIV-1 L100I mutant infected in human MT4 cells to EC50 for antiviral activity against […] HIV-1 infected in human MT4 cells; assay type: functional
[8] = system: Human immunodeficiency virus 1; experiment: Antiviral activity against […] HIV-1 infected in human MT4 cells assessed as reduction in virus-induced cytopathic effect incubated for 5 days by MTT assay; assay type: functional, organism-based; conditions: Human immunodeficiency virus 1, MT4, 120 h
[9] = Cytotoxicity against human MT4 cells assessed as cell growth inhibition incubated for 5 days by MTT assay; assay type: toxicity, cell-based; conditions: time 5 day
[10] = Fold resistance, ratio of EC50 for antiviral activity against drug-resistant HIV-1 E138K mutant infected in human MT4 cells to EC50 for antiviral activity against […] HIV-1 infected in human MT4 cells; assay type: functional
[11] = system: Human immunodeficiency virus 1; experiment: Antiviral activity against drug-resistant HIV-1 E138K mutant infected in human MT4 cells assessed as reduction in virus-induced cytopathic effect incubated for 5 days by MTT assay; assay type: functional, organism-based; conditions: Human immunodeficiency virus 1, E138K mutant, MT4, 120 h
[12] = Fold resistance, ratio of EC50 for antiviral activity against drug-resistant HIV-1 K103 N mutant infected in human MT4 cells to EC50 for antiviral activity against […] HIV-1 infected in human MT4 cells; assay type: functional
[13] = system: Human immunodeficiency virus 1; experiment: Antiviral activity against drug-resistant HIV-1 Y181C mutant infected in human MT4 cells assessed as reduction in virus-induced cytopathic effect incubated for 5 days by MTT assay; assay type: functional, organism-based; conditions: Human immunodeficiency virus 1, Y181C mutant, MT4, 120 h
[14] = Fold resistance, ratio of EC50 for antiviral activity against drug-resistant HIV-1 Y181C mutant infected in human MT4 cells to EC50 for antiviral activity against […] HIV-1 infected in human MT4 cells; assay type: functional

Compound	EC50 [1] [µM]	Ratio EC50 [2]	EC50 [3] [µM]	EC50 [4] [µM]	IC50 [5] [µM]	selectivity ratio [6]	Ratio EC50 [7]	EC50 [8] [µM]	CC50 at 120 h [9] [µM]	Ratio EC50 [10]	EC50 [11] [µM]	Ratio EC50 [12]	EC50 [13] [µM]	Ratio EC50 [14]
COc1cc(OC)cc(C(C#N)c2nc(SC(C)C)[nH]c(=O)c2C)c1 (stereo unspecified)	> 41.1	>61	> 41.1	3.36	2.58	61	5	0.67	41.1	4	2.54	>61	> 41.1	>61
Cc1c(C(C#N)c2ccc(F)c(C#N)c2)nc(SC(C)C)[nH]c1=O (stereo unspecified)	> 164	>8	> 164	57	83.8	8	3	21.4	164	2	41.9	>8	> 164	>8
Cc1c(C(C#N)c2ccc(F)cc2)nc(SC(C)C)[nH]c1=O (stereo unspecified)	> 113	>28	> 113	63.5	14.3	28	16	3.98	113	3	12.6	>28	> 113	>28
COc1cc(F)cc(C(C#N)c2nc(SC(C)C)[nH]c(=O)c2C)c1 (stereo unspecified)	23.1	442	54.4	3.94	0.236	1310	32	0.123	161	3	0.35	188	5.23	43
Cc1c(C(C#N)c2cccc(Cl)c2)nc(SC(C)C)[nH]c1=O (stereo unspecified)	50.3	>199	> 69.7	11.2	0.713	493	32	0.35	172	2	0.87	144	7.27	21
COc1cccc(C(C#N)c2nc(SC(C)C)[nH]c(=O)c2C)c1 (stereo unspecified)	28.2	450	62	2.78	1.06	1280	20	0.138	176	3	0.36	205	5.82	42
Cc1c(C(C#N)c2ccc(Cl)cc2)nc(SC(C)C)[nH]c1=O (stereo unspecified)	> 70.2	>56	> 70.2	> 14.4	3.37	56	>11	1.26	70.2	3	4.19	>56	> 70.2	>56
Cc1c(C(C#N)c2ccccc2Br)nc(SC(C)C)[nH]c1=O (stereo unspecified)	28.2	469	54	2	0.198	676	17	0.115	77.6	2	0.2	246	5.28	46
Cc1c(C(C#N)c2ccc(C(C)C)cc2)nc(SC(C)C)[nH]c1=O (stereo unspecified)	> 225	>375	> 225	5.51	2.15	376	9	0.6	225	3	1.5	>375	10.2	17

Source: ChEMBL document CHEMBL5137044, “Expansion of the S-CN-DABO scaffold to exploit the impact on inhibitory activities against the non-nucleoside HIV-1 reverse transcriptase” (Eur J Med Chem, 2022)
